Measured values as given in ChEMBL document CHEMBL1152722, “5-Aryl-4-(5-substituted-2,4-dihydroxyphenyl)-1,2,3-thiadiazoles as inhibitors of Hsp90 chaperone” (Bioorg Med Chem Lett, 2009).

How the values were obtained:
[1] = test system: U2OS; assay: Growth inhibition of human U2OS cells after 72 hrs by XTT assay; assay type: functional
[2] = test system: HeLa; assay: Growth inhibition of human HeLa cells after 72 hrs by XTT assay; assay type: functional
[3] = molecular target: Heat shock protein HSP90 (Homo sapiens, UniProt P07900+P08238)
Description: Binding affinity to human Histidine6-tagged Hsp90alpha N-terminal domain expressed in Escherichia coli BL21 DE3 by ITC

[4] = molecular target: Heat shock protein HSP 90-alpha (Homo sapiens, UniProt P07900)
Description: Binding affinity to human full length Histidine6-tagged Hsp90alpha expressed in Escherichia coli BL21 DE3 by ITC

| Compound | GI50 [1] | GI50 [2] | Kd [3] | Kd [4] |
| --- | --- | --- | --- | --- |
| COc1ccc(-c2snnc2-c2cc(Cl)c(O)cc2O)cc1 | 6 µM | 2.5 µM | – | – |
| Cc1ccc(-c2snnc2-c2cc(Cl)c(O)cc2O)cc1 | 7.1 µM | 3.3 µM | – | – |
| COc1ccc(-c2snnc2-c2cc(Cl)c(O)c(Cl)c2O)cc1 | – | – | > 20 µM | > 20 µM |
| CCOc1ccc(-c2snnc2-c2cc(CC)c(O)cc2O)cc1 | 0.69 µM | 0.7 µM | – | – |
| COc1ccc(-c2snnc2-c2cc(Cl)c(O)cc2O)cc1OC | 9.9 µM | 4.2 µM | – | – |
| CCOc1ccc(-c2snnc2-c2cc(CC)c(O)c(Cl)c2O)cc1 | 28 µM | 19 µM | > 20 µM | > 20 µM |
| CCOc1ccc(-c2snnc2-c2cc(Cl)c(O)cc2O)cc1 | 6.9 µM | 3.6 µM | – | – |
